Assay results taken from patent US20170050966A1, “INHIBITING THE TRANSIENT RECEPTOR POTENTIAL A1 ION CHANNEL” (HYDRA BIOSCIENCES, INC., priority 2014, published 2017).
Read-outs that look alike come from different tables or passages of the source.

Assays:
human TRPA1 (hTRPA1) = target: T1, human TRPA1 (hTRPA1) (Homo sapiens, UniProt O75762); experiment: Inhibition of human TRPA1, whole-cell patch clamp; format: cell-based
T1 construct: expressed in transfected cells
Protocol: Data for TRPA1 inhibition was obtained by this method for the indicated compounds of Formula (I), with the relevant data included in Table 14 below. All currents were recorded in whole-cell configuration using EPC-9 and EPC-10 amplifiers and Patchmaster software (HEKA). […] The standard pipette solution consisted of 140 mM CsAsp, 10 mM EGTA, 10 mM HEPES, […], 1.91 mM CaCl2, and up to 0.3 mM Na2GTP, with pH adjusted to 7.2 with CsOH. In addition, a solution containing 145 mM CsCl, 10 mM HEPES, 10 mM EGTA, and up to 0.3 mM Na2GTP and 1 mM MgCl2 (pH 7.2 adjusted with CsOH) can be used. The standard bath solution contained 150 mM NaCl, 10 mM HEPES, 10 mM glucose, 4.5 mM KCl, 1 mM EGTA, 3 mM MgCl2, with pH adjusted to 7.4 with NaOH. In some instances, 2 mM CaCl2 was added in place of EGTA and the concentration of MgCl2 was reduced to 1 mM.
Data were collected either by continuous recordings at −60 mV or by applying voltage ramps from a holding potential of 0 mV every 4 s. Continuous recordings were collected at 400 Hz and digitally filtered off-line at 10 Hz for presentation. Voltage ramps were applied from −100 mV to 100 mV over the course of 400 ms, and data were collected at 10 kHz and filtered at […]. Inward and outward currents were analyzed from the ramps at −80 and 80 mV, respectively. Liquid junction potential correction was not used.
Solutions were switched using a gravity-fed continuous focal perfusion system. To achieve rapid temperature changes, two temperature control, and perfusion systems were employed simultaneously. For temperatures greater than or equal to 22° C., a Warner Instruments bipolar temperature controller (TC-344B) and inline heater (SHM-8) were used. […] Temperatures were confirmed using a thermistor (Warner Instruments, TA-29), with temperatures at the recorded cell estimated to be within +/−2° C. of those reported.
The antagonist effects of compounds of Formula (I) against human TRPA1 (“hTRPA1”) in a whole cell patch configuration were evaluated using the in vitro assay protocol described above.

[1] = tested on: CFA-induced cold hyperalgesia model in the rat; experiment: CFA-induced cold hypersensitivity, paw withdrawal latency; format: in vivo; settings: for Pre-RX PWL / Pre-Rx PWL: before dosing
Protocol: Embodiments of the invention may be efficacious in the treatment of inflammatory pain. Compound 2 tested by the CFA-induced pain test method. […]
Briefly, the hind paw is sensitized to cold temperature (allodynic), by administering 0.1 mL of Complete Freund's Adjuvant (CFA) is administered to the right hind paw. Three days later, the time taken for the animal to lift its CFA-injected paw is recorded compared to its un-injected normal left hind paw. […] To avoid tissue damage the maximum cut-off time is 5 minutes. Animals that are allodynic (average PWL to the first three pain behaviors <150 seconds for the CFA-injected hind paw: ˜≧50% difference between the normal and CFA-injected paw) are included in the study and subsequently randomized across treatment groups. The following day, the animals are dosed under blinded conditions. Following the 1-2 hour pre-treatment time, the post-dose PWL readings are again taken. The efficacy of the drug treatment is assessed by comparing the PWL in the drug treatment animals to those animals that receive the vehicle.
Compound 4 was also tested using the methods disclosed.
In a further study, compounds of the invention were tested for efficacy at low doses for the treatment of inflammatory pain. Using the methods disclosed in above, Compound 2 was dosed at ranges of 0.1 to 1 mg/kg PO. The positive comparator TRPA1 antagonist Compound A was also tested at a dose of 150 mg/kg IP. […] Oral drug delivery was accomplished using a 20-gauge 1½″ oral gavage needle and a 5 cc syringe. Fed rats received a single oral gavage of Compound 2 at 0.03, 0.1, 0.3, or 1 mg/kg or Vehicle, 2 hours prior to testing

CYP1A2 = target: T2, CYP1A2 (Homo sapiens, UniProt P05177); experiment: P450 Cyp-inhibition luminescent assay; format: biochemical
T2 sequence (P05177 1-516): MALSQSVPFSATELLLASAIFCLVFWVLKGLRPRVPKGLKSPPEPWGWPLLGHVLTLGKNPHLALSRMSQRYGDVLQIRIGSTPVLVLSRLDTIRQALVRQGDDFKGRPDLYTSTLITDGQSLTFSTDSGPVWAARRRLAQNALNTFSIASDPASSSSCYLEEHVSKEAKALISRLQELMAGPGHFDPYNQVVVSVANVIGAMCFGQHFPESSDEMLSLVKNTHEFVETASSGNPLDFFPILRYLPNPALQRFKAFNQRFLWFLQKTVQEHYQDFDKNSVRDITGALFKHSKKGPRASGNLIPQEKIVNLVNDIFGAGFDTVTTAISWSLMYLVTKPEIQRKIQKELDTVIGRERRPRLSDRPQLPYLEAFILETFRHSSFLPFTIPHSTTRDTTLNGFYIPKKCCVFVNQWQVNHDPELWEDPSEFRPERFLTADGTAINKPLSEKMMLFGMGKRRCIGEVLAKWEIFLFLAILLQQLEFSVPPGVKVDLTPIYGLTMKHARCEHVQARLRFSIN
Protocol: (§1) The ability of Compound 2 to inhibit human CYP450 enzymes was evaluated. Compound 1 and Compound 2 were tested in standard P450 Cyp-inhibition luminescent assay.

CYP2C19 = CYP2C19 (Homo sapiens, UniProt P33261); experiment: P450 Cyp-inhibition luminescent assay; format: biochemical
Protocol: as §1

CYP2C9 = CYP2C9 (Homo sapiens, UniProt P11712); experiment: P450 Cyp-inhibition luminescent assay; format: biochemical
Protocol: as §1

CYP2D6 = CYP2D6 (Homo sapiens, UniProt P10635); experiment: P450 Cyp-inhibition luminescent assay; format: biochemical
Protocol: as §1

CYP3A4 = CYP3A4 (Homo sapiens, UniProt P08684); experiment: P450 Cyp-inhibition luminescent assay; format: biochemical
Protocol: as §1

[2] = antagonist effect, whole cell patch configuration, read-out: hTRPA1
[3] = 1 mg/kg PO, suspension in 0.5% methylcellulose

T1 sequence (O75762 whole entry): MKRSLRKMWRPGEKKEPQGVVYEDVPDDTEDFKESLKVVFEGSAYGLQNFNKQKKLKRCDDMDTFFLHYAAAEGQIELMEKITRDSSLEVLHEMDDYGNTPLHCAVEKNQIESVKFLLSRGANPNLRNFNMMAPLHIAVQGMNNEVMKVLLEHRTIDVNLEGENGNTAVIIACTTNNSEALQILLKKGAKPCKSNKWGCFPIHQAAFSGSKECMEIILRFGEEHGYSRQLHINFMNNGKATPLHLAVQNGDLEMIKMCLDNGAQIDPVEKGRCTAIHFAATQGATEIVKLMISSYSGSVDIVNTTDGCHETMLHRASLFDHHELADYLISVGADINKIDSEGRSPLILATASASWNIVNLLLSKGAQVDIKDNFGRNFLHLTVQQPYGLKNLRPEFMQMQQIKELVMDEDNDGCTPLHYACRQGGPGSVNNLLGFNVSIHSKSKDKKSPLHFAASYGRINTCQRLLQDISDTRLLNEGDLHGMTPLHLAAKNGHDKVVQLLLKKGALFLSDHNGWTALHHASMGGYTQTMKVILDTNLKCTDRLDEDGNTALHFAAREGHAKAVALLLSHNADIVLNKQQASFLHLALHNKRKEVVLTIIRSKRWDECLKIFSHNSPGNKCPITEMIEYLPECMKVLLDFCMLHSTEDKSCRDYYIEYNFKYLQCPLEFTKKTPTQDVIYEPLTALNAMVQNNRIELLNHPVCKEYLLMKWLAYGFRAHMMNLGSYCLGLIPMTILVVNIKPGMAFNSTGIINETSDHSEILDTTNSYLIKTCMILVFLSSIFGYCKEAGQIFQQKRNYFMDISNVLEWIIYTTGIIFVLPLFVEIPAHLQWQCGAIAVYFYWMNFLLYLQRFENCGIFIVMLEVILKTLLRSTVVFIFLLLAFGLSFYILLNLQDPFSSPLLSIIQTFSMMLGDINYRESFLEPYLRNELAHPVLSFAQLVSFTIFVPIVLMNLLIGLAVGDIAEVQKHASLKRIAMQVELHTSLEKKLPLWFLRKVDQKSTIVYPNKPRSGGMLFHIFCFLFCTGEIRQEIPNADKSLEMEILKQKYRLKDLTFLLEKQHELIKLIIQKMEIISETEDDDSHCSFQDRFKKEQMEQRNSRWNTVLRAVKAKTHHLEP
CYP3A4, sequence (P08684 whole entry): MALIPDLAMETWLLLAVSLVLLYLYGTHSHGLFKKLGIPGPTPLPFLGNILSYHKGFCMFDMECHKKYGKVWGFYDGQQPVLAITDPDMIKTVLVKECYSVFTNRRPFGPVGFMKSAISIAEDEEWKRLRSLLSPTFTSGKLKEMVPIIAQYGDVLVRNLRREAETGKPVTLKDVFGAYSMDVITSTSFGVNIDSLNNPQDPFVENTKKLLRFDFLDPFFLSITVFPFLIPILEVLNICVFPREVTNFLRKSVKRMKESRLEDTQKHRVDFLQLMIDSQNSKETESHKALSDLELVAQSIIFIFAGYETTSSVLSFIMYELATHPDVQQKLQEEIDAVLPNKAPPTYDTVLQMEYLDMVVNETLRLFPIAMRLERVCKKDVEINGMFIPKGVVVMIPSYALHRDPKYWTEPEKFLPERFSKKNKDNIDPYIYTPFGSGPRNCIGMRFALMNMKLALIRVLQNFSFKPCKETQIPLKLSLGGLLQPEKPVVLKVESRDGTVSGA
CYP2C9, sequence (P11712 whole entry): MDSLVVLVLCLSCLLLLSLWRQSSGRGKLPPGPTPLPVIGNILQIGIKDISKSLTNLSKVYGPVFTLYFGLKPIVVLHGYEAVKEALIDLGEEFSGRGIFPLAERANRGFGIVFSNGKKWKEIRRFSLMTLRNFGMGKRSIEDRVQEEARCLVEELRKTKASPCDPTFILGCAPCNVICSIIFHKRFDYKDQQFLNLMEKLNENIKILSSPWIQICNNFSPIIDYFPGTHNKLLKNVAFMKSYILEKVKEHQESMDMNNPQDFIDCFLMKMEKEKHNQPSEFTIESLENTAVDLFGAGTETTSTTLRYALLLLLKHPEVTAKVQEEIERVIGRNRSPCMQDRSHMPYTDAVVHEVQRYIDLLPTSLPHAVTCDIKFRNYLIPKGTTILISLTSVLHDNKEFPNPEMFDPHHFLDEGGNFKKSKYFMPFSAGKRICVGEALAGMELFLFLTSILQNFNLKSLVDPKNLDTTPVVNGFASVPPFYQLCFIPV
CYP2C19, sequence (P33261 whole entry): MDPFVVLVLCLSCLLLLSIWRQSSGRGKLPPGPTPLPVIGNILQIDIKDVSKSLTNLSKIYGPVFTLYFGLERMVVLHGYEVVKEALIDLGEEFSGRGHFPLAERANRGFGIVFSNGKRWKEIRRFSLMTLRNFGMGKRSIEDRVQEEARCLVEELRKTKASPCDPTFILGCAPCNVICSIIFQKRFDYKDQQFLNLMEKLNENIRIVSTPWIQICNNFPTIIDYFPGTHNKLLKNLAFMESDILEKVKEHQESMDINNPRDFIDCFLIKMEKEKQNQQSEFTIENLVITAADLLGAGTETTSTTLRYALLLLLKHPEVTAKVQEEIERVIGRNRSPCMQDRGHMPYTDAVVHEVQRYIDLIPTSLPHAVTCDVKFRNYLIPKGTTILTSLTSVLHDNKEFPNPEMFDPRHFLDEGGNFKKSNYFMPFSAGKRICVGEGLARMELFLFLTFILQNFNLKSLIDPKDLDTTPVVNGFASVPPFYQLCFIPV
CYP2D6, sequence (P10635 whole entry): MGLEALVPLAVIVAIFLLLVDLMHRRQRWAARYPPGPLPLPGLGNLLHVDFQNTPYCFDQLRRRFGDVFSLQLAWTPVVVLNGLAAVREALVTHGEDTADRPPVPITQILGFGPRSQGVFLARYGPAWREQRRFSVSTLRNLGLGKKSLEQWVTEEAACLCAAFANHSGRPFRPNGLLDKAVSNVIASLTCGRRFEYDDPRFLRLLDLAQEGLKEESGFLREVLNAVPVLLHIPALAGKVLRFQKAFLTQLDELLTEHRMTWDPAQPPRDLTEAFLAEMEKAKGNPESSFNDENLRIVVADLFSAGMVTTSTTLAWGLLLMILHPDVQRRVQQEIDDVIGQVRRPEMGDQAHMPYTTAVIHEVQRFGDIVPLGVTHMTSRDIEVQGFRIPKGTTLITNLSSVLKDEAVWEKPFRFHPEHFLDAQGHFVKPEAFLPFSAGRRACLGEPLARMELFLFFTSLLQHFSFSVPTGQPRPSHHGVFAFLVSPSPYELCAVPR

## C[C@@H](C(=O)Nc1ccnc(-c2cnc(N3CCC[C@H]3C(F)(F)F)nc2)n1)n1cnc2c1c(=O)n(C)c(=O)n2C [Compound 2, (S)-2-(1,3-dimethyl-2,6-dioxo-2,3-dihydro-1H-purin-7(6H)-yl)-N-(2′-((S)-2-(trifluoromethyl)pyrrolidin-1-yl)-[2,5′-bipyrimidin]-4-yl)propanamide]
Human TRPA1 (hTRPA1); [2]
  IC50: 6.87 nM
Human TRPA1 (hTRPA1); hTRPA1, 10 μM AITC, read-out: IC50 Inward current
  IC50: 6.9 ± 3.1 nM
[1]; 0.03 mg/kg PO
  reversal of CFA-induced cold hypersensitivity: did not exert a statistically significant effect
[1]; 0.03 mpk PO, 2 hours prior to testing
  PWL Change: 14.8 s
[1]; 0.1, 0.3, and 1 mg/kg PO
  reversal of CFA-induced cold hypersensitivity: significant reversal of CFA-induced cold hypersensitivity
[1]; 0.1 mpk PO, 2 hours prior to testing
  PWL Change: 43.1 s
[1]; 0.3 mpk PO
  Post RX PWL: 197.7 s
[1]; 0.3 mpk PO group
  Pre-RX PWL: 104.0 s
[1]; 0.3 mpk PO, 2 hours prior to testing
  PWL Change: 74.1 s
[1]; 1 mpk PO
  Post RX PWL: 243.0 s
[1]; 1 mpk PO group
  Pre-RX PWL: 103.7 s
[1]; 1 mpk PO, 2 hours prior to testing
  PWL Change: 104.8 s
[1]; 3 mpk PO
  Post RX PWL: 249.6 s
[1]; 3 mpk PO group
  Pre-RX PWL: 103.9 s
[1]; 10 mpk PO
  Post RX PWL: 237.3 s
[1]; 10 mpk PO group
  Pre-RX PWL: 104.0 s
[1]; oral doses of 0.3 to 10 mg/kg
  effect on cold hypersensitivity: attenuated cold hypersensitivity
CYP1A2
  CYP 1A2: % Inhibition: 0.299%
CYP2C19
  CYP 2C19: % Inhibition: 29.1%
CYP2C9
  CYP 2C9: % Inhibition: 39.6%
CYP2D6
  CYP 2D6: % Inhibition: 6.3%
CYP3A4
  CYP 3A4: % Inhibition: 2.7%

## C[C@@H](C(=O)Nc1ccnc(-c2cnc(N3CCC[C@@H]3C(F)(F)F)nc2)n1)n1cnc2c1c(=O)n(C)c(=O)n2C [Compound 4, (S)-2-(1,3-dimethyl-2,6-dioxo-2,3-dihydro-1H-purin-7(6H)-yl)-N-(2′-((R)-2-(trifluoromethyl)pyrrolidin-1-yl)-[2,5′-bipyrimidin]-4-yl)propanamide]
Human TRPA1 (hTRPA1); [2]
  IC50: 11.3 nM
[1]; 1 mg/kg PO group, suspension in 0.5% methylcellulose
  Pre-Rx PWL: 101.7 s
[1]; [3]
  PWL Change: 148.6 s
  Post-Rx PWL: 250.3 s
[1]; 3 mg/kg PO group, suspension
  Pre-Rx PWL: 101.1 s
[1]; 3 mg/kg PO, suspension
  PWL Change: 140.9 s
  Post-Rx PWL: 242.1 s
[1]; 10 mg/kg PO group, suspension
  Pre-Rx PWL: 101.5 s
[1]; 10 mg/kg PO, suspension
  PWL Change: 132.6 s
  Post-Rx PWL: 234.1 s

## C[C@@H](C(=O)Nc1ccnc(-c2cnc(N3CCCC3(C)C)nc2)n1)n1cnc2c1c(=O)n(C)c(=O)n2C [Compound 1, (S)-2-(1,3-dimethyl-2,6-dioxo-2,3-dihydro-1H-purin-7(6H)-yl)-N-(2′-(2,2-dimethylpyrrolidin-1-yl)-[2,5′-bipyrimidin]-4-yl)propanamide]
Human TRPA1 (hTRPA1); [2]
  IC50: 5.15 nM
CYP1A2
  CYP 1A2: % Inhibition: 4.2%
CYP2C19
  CYP 2C19: % Inhibition: 45.9%
CYP2C9
  CYP 2C9: % Inhibition: 71.4%
CYP2D6
  CYP 2D6: % Inhibition: 9%
CYP3A4
  CYP 3A4: % Inhibition: 26.9%
